US4232160A, “Isoquinoline propionamides exhibiting analgesic properties” (Miles Laboratories, Inc., priority 1978, dated 1980)
Structures can show the parent of a compound that is named as a salt.

What follows are molecules tested on male CD-1 mice (assay: acetic acid induced writhing test (analgesic activity, subcutaneous)). Conditions: Mus musculus, sc, 0.5% acetic acid i.p. 15 min post drug, writhes counted in 20 min interval beginning 5 min after acetic acid, read-out: ED50 (dose required to reduce the number of writhes by 50%).
Format: in vivo
Protocol: The analgesic activity of the isoquinoline propionanilides prepared as described in Examples I-XIII was determined by the acetic acid induced writhing test described by Whittle et al., Brit. J. Pharmacol, 22 296 (1964). In this test at least three groups of five male CD-1 mice each were given subcutaneous doses of the test drug dissolved in either distilled water or distilled water acidified with HCl depending on solubility of the compound. In all cases 0.4 ml. of 0.5% v/v acetic acid in distilled water was administered intraperitoneal 15 minutes post drug. The number of writhes in a 20 minute interval beginning 5 minutes after the acetic acid injection were determined and compared with the number of writhes in control groups which had received only acetic acid. In two cases the ITME writhing test protocol was used which is the same as that outlined above except that the number of writhes are determined for 10 minutes after the administration of acetic acid.
Percent inhibition of writhing was calculated as: [formula]
The ED50 does, ie. the dose required to reduce the number of writhes by 50%, was determined graphically from a plot of % inhibition as a probit versus log dose. Confidence limits of 95% were calculated on the basis of those results falling in the range 16-84% inhibition. See Litchfield, J. T. and Wilcoxon, F., J Pharmacol. Exp. Ther., 96 99-113, (1949).

| SMILES | ED50 |
| --- | --- |
| CCC(=O)N(CC1c2ccccc2CCN1C)c1ccc(C)cc1.Cl (stereo not shown) [TR-3355, N-[(1,2,3,4-Tetrahydro-2-methyl-1-isoquinolyl)methyl]-N-(4-methylphenyl)propionamide hydrochloride] | 0.53 mg/kg |
| CCCCCN1CCc2ccccc2C1CN(C(=O)CC)c1ccccc1.Cl (stereo not shown) [TR-3316, N-[(1,2,3,4-Tetrahydro-2-n-pentyl-1-isoquinolyl)methyl]propionanilide hydrochloride] | 1.76 mg/kg |
| CCCCCCN1CCc2ccccc2C1CN(C(=O)CC)c1ccccc1.O.O=C(O)C(=O)O (stereo not shown) [TR-3309, N-[(1,2,3,4-Tetrahydro-2-n-hexyl-1-isoquinolyl)methyl]propionanilide oxalate hydrate] | 2.08 mg/kg |
| CCC(=O)N(CC1c2cc(OC)c(OC)cc2CCN1C)c1ccccc1 (stereo not shown) [TR-3426, N-[(6,7-Dimethoxy-2-methyl-1,2,3,4-tetrahydro-1-isoquinolyl)methyl]propionanilide] | 4.55 mg/kg |
| CCC(=O)N(Cc1ccccc1)CC1c2ccccc2CCN1C (stereo not shown) [TR-3389, N-[(1,2,3,4-Tetrahydro-2-methyl-1-isoquinolyl)methyl]-N-benzylpropionamideoxalate] | 23 mg/kg |
| CCC(=O)N(Cc1ccccc1)CC1c2ccccc2CCN1Cc1ccccc1 (stereo not shown) [TR-3388, N-[(1,2,3,4-Tetrahydro-2-benzyl-1-isoquinolyl)methyl]-N-benzylpropionamideoxalate] | 33 mg/kg |
| CCC(=O)N(CC1c2ccccc2CCN1C)c1ccc(Cl)cc1.Cl (stereo not shown) [TR-3354, N-[(1,2,3,4-Tetrahydro-2-methyl-1-isoquinolyl)methyl]N-(4-chlorophenyl)propionamide hydrochloride] | 0.5 mg/kg |
| CCC(=O)N(CC1c2ccccc2CCN1CC1CC1)c1ccccc1.Cl (stereo not shown) [TR-3207, N-[(1,2,3,4-Tetrahydro-2-cyclopropylmethyl-1-isoquinolyl)methyl]propionanilide hydrochloride] | 7.45 mg/kg |
| CCC(=O)N(CC1c2ccccc2CCN1C)c1ccccc1.Cl (stereo not shown) [TR-3284, N-[(1,2,3,4-Tetrahydro-2-methyl-1-isoquinolyl)methyl]propionanilide hydrochloride] | 7.1 mg/kg |
| CCC(=O)N(CC1c2ccccc2CCN1Cc1ccccc1)c1ccccc1.Cl (stereo not shown) [TR-3359, N-[(1,2,3,4-Tetrahydro-2-benzyl-1-isoquinolyl)methyl]propionanilide hydrochloride] | 15 mg/kg |
| CCC(=O)N(CC1c2ccccc2CCN1C)c1ccccn1 (stereo not shown) [TR-3461, N-[(2-Methyl-1,2,3,4-tetrahydro-1-isoquinolyl)methyl]-N-(2-pyridyl)priopionamide hydrochloride] | 10.7 mg/kg |

Same assay, conditions: Mus musculus, sc, 10 min, *According to IMTE writhing test protocol: writhes determined for 10 minutes after acetic acid, read-out: ED50 (dose required to reduce the number of writhes by 50%)

| SMILES | ED50 |
| --- | --- |
| CCC(=O)N(CC1c2ccccc2CCN1CCC(C)C)c1ccccc1.Cl (stereo not shown) [TR-3317, N-[(1,2,3,4-Tetrahydro-2-i-pentyl-1-isoquinolyl)methyl]propionanilide hydrochloride] | 16.5 mg/kg |
| CCC(=O)N(CC1c2ccccc2CCN1CCc1ccccc1)c1ccccc1.Cl (stereo not shown) [TR-3280, N-[(1,2,3,4-Tetrahydro-2-phenethyl-1-isoquinolyl)methyl]propionanilide hydrochloride] | 10 mg/kg |
